How the values were obtained:
[1] = Biodistribution of N-retinylamides and retinylamine derivatives in liver and eye after oral gavage; assay type: in vivo, mouse; settings: for original drug detected in the eye: 2 h and 16 h
Method: Female C57BL mice (4-week-old) were randomly divided into seven groups, six treated groups and one control group. Free Ret-NH2 (3.5 μmol per mouse, dissolved in DMSO and dispersed in vegetable oil) or retinylamine derivatives (Ret-Gly, Ret-L-Val-Gly, Ret-L-Phe, Ret-L-Leu, Ret-L-Val, 3.5 μmol per mouse, dissolved in DMSO and dispersed in vegetable oil) was administered by gastric gavage, control group was only gavaged vegetable oil. Then at each predetermined time point (2 and 16 h after drug administration), 3 mice were sacrificed. The liver and eye balls were collected to determine tissue N-retinylamide content for pharmacokinetic analysis. A portion of the liver tissue (0.3-0.5 g) was weighed, homogenized in 2 mL 1:1 ethanol:PBS solution and the eye balls were similarly processed (eye balls were combined for 3 mice). N-Retinylamides were extracted in 4 mL hexane, concentrated, and reconstituted to a 300 μL volume for liver (200 μL for eye). Normal-phase HPLC (Agilent-Zorbax SIL; 5 μm; 4.5×250 mm; flow rate of 1.4 mL/min; 80:20 hexane:ethyl acetate (v:v); detection at 325 nm) was utilized to determine N-retinylamide concentration in these tissues.
Female C57BL mice (4-week-old) were randomly divided into seven groups, six treated groups and one control group. Free Ret-NH2 (3.5 μmol per mouse, dissolved in DMSO and dispersed in vegetable oil) or retinylamine derivative (Ret-Gly, Ret-L-Val-Gly, Ret-L-Phe, Ret-L-Leu, Ret-L-Val, 3.5 μmol per mouse, dissolved in DMSO and dispersed in vegetable oil) was administered by gastric gavage, control group was only gavaged vegetable oil. Then at each predetermined time point (2 and 16 h after drug administration), 3 mice were sacrificed. The liver and eye balls were collected to determine tissue drug content for pharmacokinetic analysis. A portion of the liver tissue (0.3-0.5 g) was weighed, homogenized in 2 mL 1:1 ethanol:PBS solution and the eye balls were similarly processed. Retinylamine or its derivative was extracted in 4 mL ethyl acetate, concentrated, and reconstituted to a 300 μL volume for liver (200 μL for eye). Reverse-phase HPLC (analytical C18 reverse column; 5 μm; 250 mm×4.6 mm; flow rate of 1.0 mL/min; 60:40 acetonitrile:H2O (v:v) with 0.05% trifluoroacetic acid; detection at 325 nm) was utilized to determine retinylamine or its derivative in these tissues. […]
No N-retinylamides were detected in the eye at 2 h for all treated mice. The concentration of N-retinylamides in the liver of all treated mice increased at 16 h post-treatment. […] The concentrations of the original drugs were also determined in the liver and eye at 2 h and 16 h (FIGS. 7C, D). All tested drugs, including Ret-NH2, were detected in liver and their concentrations decreased from 2 h to 16 h.

RPE65 = RPE65 (Bos taurus, UniProt Q28175); assay: Retinoid isomerase activity in RPE microsomes (11-cis-retinol production); assay type: biochemical, Bovine; settings: 0.5 to 10 μM compound, 10 μM all-trans-retinol, 1 h
Chain of RPE65 (Q28175 whole entry): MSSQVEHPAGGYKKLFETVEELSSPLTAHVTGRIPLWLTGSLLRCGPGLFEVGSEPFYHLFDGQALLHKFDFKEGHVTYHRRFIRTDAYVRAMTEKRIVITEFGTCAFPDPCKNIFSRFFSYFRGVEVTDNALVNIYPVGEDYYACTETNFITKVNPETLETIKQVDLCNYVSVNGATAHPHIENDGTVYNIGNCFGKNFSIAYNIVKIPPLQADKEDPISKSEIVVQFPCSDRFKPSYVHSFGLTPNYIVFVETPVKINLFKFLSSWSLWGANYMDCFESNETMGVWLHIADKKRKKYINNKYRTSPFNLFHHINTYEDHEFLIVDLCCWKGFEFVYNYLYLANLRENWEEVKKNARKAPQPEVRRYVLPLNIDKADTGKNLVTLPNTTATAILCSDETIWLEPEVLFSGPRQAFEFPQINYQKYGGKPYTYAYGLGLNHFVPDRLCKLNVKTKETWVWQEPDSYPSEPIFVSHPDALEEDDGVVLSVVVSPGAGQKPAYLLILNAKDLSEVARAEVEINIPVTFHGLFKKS
Method: To destroy endogenous retinoids, 200-μl aliquots of RPE microsomes placed in a quartz cuvette were irradiated for 5 min at 0° C. with a ChromatoUVE transilluminator (model TM-15; UVP).
All assays were performed under dim red light. 2 μl of the synthesized retinylamine derivatives (RF and RVG) (DMF, 0.5-10 mM) was added into 10 mM Bis-Tris propane buffer (pH 7.4) containing 150 μg RPE microsomes, 1% BSA, 1 mM disodium pyrophosphate and 20 μM apo Retinaldehyde-binding protein 1 (CRALBP). The resulting mixture was pre-incubated at room temperature for 5 min. Then 1 μl all-trans-retinol (DMF, 20 mM) was added. The resulting mixture was incubated at 37° C. for 1 h. Reaction was quenched by addition of 300 μl methanol, and the products were extracted with 300 μl hexanes. Production of 11-cis-retinol was quantified by normal phase HPLC with 10% (v/v) ethyl acetate in hexanes as eluent. Flow rate was 1.4 ml·min^−1 Retinoids were detected by monitoring absorbance at 325 nm and quantified base on a standard curve reflecting relation between amount of 11-cis-retinol and area under the corresponding chromatography peak.

[2] = All-trans-retinal Schiff base formation; settings: 0.2 mM drug with all-trans-retinal in ethanol 2 h at room temperature
Method: Incubate Ret-NH2 and retinylamine derivatives RVG, RF (0.2 mM) with all-trans-retinal (2 mM) in ethanol 2 h at room temperature, retinyl imines separated by reverse phase HPLC were identified on the basis of both their characteristic UV-vis spectra upon protonation and spectra obtained by mass spectrometry (MS). HPLC condition: analytical C18 reverse column; 5 μm; 250 mm×4.6 mm; flow rate of 0.5 mL/min; mobile phase acetonitrile:H2O (v:v) with 0.05% trifluoroacetic acid (0-15 min acetonitrile from 50% to 100%, 15-30 min 100% acetonitrile); detection at 325 nm.

[3] = 3.5 μmol per mouse oral, C57BL mice, 16 h

| SMILES | original drug detected in the eye ([1]; 3.5 μmol per mouse oral) | N-retinylamides in the eye [1, 3] | liver concentration of N-retinylamides [1, 3] | inhibition of RPE65 on 11-cis-retinol production (RPE65) | Schiff base formation with atRAL [2] | metabolism in the eye ([1]; conclusion from biodistribution at 2 h and 16 h) |
| --- | --- | --- | --- | --- | --- | --- |
| CC1=C(/C=C/C(C)=C/C=C/C(C)=C/CNC(=O)[C@@H](NC(=O)CN)C(C)C)C(C)(C)CCC1 [RVG, (S)-2-(2-aminoacetamido)-N-((2E,4E,6E,8E)-3,7-dimethyl-9-(2,6,6-trimethylcyclohex-1-en-1-yl)nona-2,4,6,8-tetraen-1-yl)-3-methylbutanamide] | only detected at 16 h | no detectable N-retinylamides in the eye | lower liver concentration of N-retinylamides than RF and RL | did not show significant inhibition | able to form Schiff base with atRAL |  |
| CC1=C(/C=C/C(C)=C/C=C/C(C)=C/CNC(=O)[C@@H](N)Cc2ccccc2)C(C)(C)CCC1 [RF, (S)-2-amino-N-((2E,4E,6E,8E)-3,7-dimethyl-9-(2,6,6-trimethylcyclohex-1-en-1-yl)nona-2,4,6,8-tetraen-1-yl)-3-phenylpropanamide] | only detected at 2 h |  |  | partial inhibition, but not in a concentration dependent manner | able to form Schiff base with atRAL | rapidly metabolized into inactive N-retinylamides in the eye |
| CC1=C(/C=C/C(C)=C/C=C/C(C)=C/CN)C(C)(C)CCC1 [Ret-NH2, (2E,4E,6E,8E)-3,7-dimethyl-9-(2,6,6-trimethylcyclohex-1-en-1-yl)nona-2,4,6,8-tetraen-1-amine] | No free Ret-NH2 was detected in the eye |  |  | concentration dependent inhibition of RPE65 | able to form Schiff base with atRAL |  |
